Data on three compounds can be found in ChEMBL document CHEMBL1201862, “PubChem BioAssay data set” (2004).

A word on the IC50: it is the concentration that inhibits the measured activity by half.

Calls of active or inactive are those of the source. No stated cut-off is given here; in the data, actives have a measured IC50 and inactives only a lower limit.

Envelope glycoprotein gp160, sequence (Q6QLK5 whole entry, the tested form may be a part): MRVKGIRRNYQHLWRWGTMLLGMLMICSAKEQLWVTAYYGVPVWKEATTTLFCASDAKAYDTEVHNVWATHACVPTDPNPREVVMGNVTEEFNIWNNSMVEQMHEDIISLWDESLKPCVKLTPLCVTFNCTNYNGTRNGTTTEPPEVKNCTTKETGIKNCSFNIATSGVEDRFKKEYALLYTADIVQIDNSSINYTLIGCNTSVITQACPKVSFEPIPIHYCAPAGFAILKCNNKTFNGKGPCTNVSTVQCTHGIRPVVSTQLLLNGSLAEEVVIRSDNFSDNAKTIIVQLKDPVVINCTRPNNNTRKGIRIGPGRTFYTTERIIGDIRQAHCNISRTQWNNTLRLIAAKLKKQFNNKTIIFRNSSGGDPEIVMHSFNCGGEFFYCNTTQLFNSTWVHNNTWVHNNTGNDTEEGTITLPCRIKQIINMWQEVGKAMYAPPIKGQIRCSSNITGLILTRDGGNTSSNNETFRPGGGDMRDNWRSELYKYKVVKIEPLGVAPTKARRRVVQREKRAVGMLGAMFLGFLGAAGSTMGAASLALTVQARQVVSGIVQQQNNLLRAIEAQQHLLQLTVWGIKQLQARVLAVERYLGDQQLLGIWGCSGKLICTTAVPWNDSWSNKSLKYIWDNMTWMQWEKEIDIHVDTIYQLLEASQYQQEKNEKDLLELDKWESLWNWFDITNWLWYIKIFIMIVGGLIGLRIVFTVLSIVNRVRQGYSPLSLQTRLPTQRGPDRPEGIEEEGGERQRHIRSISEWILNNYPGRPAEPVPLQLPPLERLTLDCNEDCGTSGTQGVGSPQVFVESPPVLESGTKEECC

The experiment has as its target Envelope glycoprotein gp160 (Human immunodeficiency virus 1, UniProt Q6QLK5). The experiment is described as follows: cell-free HIV fusion peptide-binding blockers – biochemical, uHTS, fluorescence dequenching, […] (AID 1986).
As for `COc1ccc(-c2csc(NC(=O)CSc3nc(C)nc4sc(C(=O)O)c(C)c34)n2)cc1`, the half-maximal inhibitory concentration (IC50) was 9.37 µM (active). Consider `COc1ccc(OC)c(/C=C2\SC(=S)N(NS(=O)(=O)c3ccc(C)cc3)C2=O)c1`, for which the half-inhibitory concentration (IC50) is 21.4 µM (active).

`CC1=C(C#N)C(=O)NC(=O)/C1=C\c1ccc(-c2cc(C)c(C)cc2[N+](=O)[O-])o1`: the half-inhibitory concentration (IC50) is 21.8 µM (active).
